{"source": "patent US7659397B2", "about": "“Pyrithione complex compound, process for producing the same and use thereof” (priority 2003, dated 2010)", "key": {"[1]": {"tested_on": "Aspergillus niger ATCC 6275", "assay": "Antibacterial test (MIC), agar medium", "details": "Potato dextrose agar medium, 30° C., 7 days"}, "[2]": {"details": "for Solubility in seawater, Molecular weight conversion / Solubility in seawater, Dissolved zinc-copper: pH = 8.2", "procedure": "Formulation of artificial seawater (g/L)\n0.1 g of the sample was added in 500 mL of artificial seawater, which was then stirred at 20° C. and 30° C. for 4 hours and filtered, and the filtrate was subjected to atomic absorption analysis."}, "[3]": {"tested_on": "Malassezia furfur NBRC 0656", "details": "YM agar medium with olive oil, 30° C., 6 days", "procedure": "(§1) Preparation of a sample: the extract was dissolved in dimethylsulfoxide, to which an aqueous 0.1 W % Tween 80 was added to make a sample solution.\nYM agar medium to which olive oil is added, 30° C., 6 days"}, "[4]": {"details": "2% by weight in purified water, well-lighted room, one week", "text": "(§2) The pyrithione complex compound represented by the formula (I) is used as an antidandruff agent to be formulated in hair-care products such as shampoos and hair rinses like conventional zinc pyrithione. […] Also, the zinc pyrithione/zinc oxide complex compound and zinc pyrithione were respectively added to purified water in an amount of 2% by weight and each suspension was allowed to stand in a well-lighted room to observe the degree of coloration of the suspension."}, "[5]": {"tested_on": "Staphylococcus aureus NBRC 12732", "details": "for Minimum growth inhibitive concentration of bacteria, Staphylococcus aureus: Soybean casein digest agar medium, 30° C., 5 days", "procedure": "as §1\nSoybean casein digest agar medium, 30° C., 5 days"}, "[6]": {"assay": "Weathering of polyethylene resin molded article (color difference, yellow index)", "assay_type": "physicochemical", "details": "for ΔE* / ΔYI: Sample after hung in the sun versus before; for degree of coloring: after hung in the sun, ranking", "procedure": "Then, the resin materials were respectively applied to a sheet having a size of 200 mm×200 mm×1.1 mm by press molding in the condition of 140° C. and 200 kgf/cm^2. Two test pieces of 30 mm×110 mm were cut from each of the four sheets and hung in the sun from 8 a.m. to 5 p.m. for five fine weather days selected from among the term between Sep. 15 and […]."}, "[7]": {"tested_on": "Escherichia coli NBRC 3972", "details": "for Minimum growth inhibitive concentration of bacteria, Escherichia coli: NB agar medium with lactose, 30° C., 3 days", "procedure": "as §1\nNB agar medium to which lactose is added, 30° C., 3 days"}, "oculus membrane mucosa": {"tested_on": "oculus membrane mucosa", "details": "aqueous 2.0 W % suspension instilled in the eye", "text": "as §2"}, "[8]": {"tested_on": "Bacillus subtilis IFO 3215", "assay": "Antibacterial test (MIC), shake culture", "assay_type": "cell-based", "details": "24 hours", "procedure": "(§3) Preparation of a sample: the white powder is added in a fixed concentration.\n(§4) Culture condition: 28° C., 24 hours, shake culture"}, "[9]": {"tested_on": "Escherichia coli IFO 3972", "assay": "Antibacterial test (MIC), shake culture", "assay_type": "cell-based", "details": "24 hours", "procedure": "as §3, §4"}, "[10]": {"assay": "Stability in DMSO (coloring of filtrate)", "assay_type": "physicochemical", "procedure": "2 g of each of these four compounds was added in 10 g of DMSO, allowed to stand at ambient temperature in a laboratory and filtered, to examine coloring of the filtrate. Then, the filter residue was again added to 10 g of DMSO to carry out the same operation."}, "[11]": {"tested_on": "Pseudomonas aeruginosa IAM 1514", "assay": "Antibacterial test (MIC), alone and combined with isothiazolone preparation", "assay_type": "cell-based", "details": "Table 3, Example 16", "procedure": "as §3, §4"}, "[12]": {"details": "Sample after hung in the sun, five days"}, "[13]": {"details": "Sample before hung in the sun, 0.15 parts in LDPE"}}, "note": "Where two headings read alike, the source gives them in different places.", "data": [{"compound": "On1ccccc1=S.On1ccccc1=S.[Cu]", "note": "[Copper pyrithione]", "values": [{"measurement": "Minimum growth inhibitive concentration of bacteria, Aspergillus niger", "setting": "[1]", "value": 20, "unit": "mg/L"}, {"measurement": "Solubility in seawater, Molecular weight conversion", "setting": "[2]; 20° C.", "value": 0.1, "unit": "mg/L"}, {"measurement": "Solubility in seawater, Molecular weight conversion", "setting": "[2]; 30° C.", "value": 0.2, "unit": "mg/L"}]}, {"compound": "[O-2].[O-][n+]1ccccc1S.[O-][n+]1ccccc1S.[O-][n+]1ccccc1S.[O-][n+]1ccccc1S.[O-][n+]1ccccc1S.[O-][n+]1ccccc1S.[Zn+2].[Zn+2].[Zn+2].[Zn+2]", "note": "[Example 3 Chloroform extract, zinc pyrithione-zinc oxide complex compound]", "values": [{"measurement": "Minimum growth inhibitive concentration of bacteria, Malassezia furfur", "setting": "[3]", "value": 5, "unit": "mg/L"}, {"measurement": "degree of coloration of the suspension", "setting": "[4]", "value": "slightly yellowed"}, {"measurement": "Minimum growth inhibitive concentration of bacteria, Staphylococcus aureus", "setting": "[5]", "value": 1.25, "unit": "mg/L"}, {"measurement": "antibacterial ability to Staphylococcus aureus", "setting": "[5]; compared with zinc pyrithione", "value": "higher"}, {"measurement": "Solubility in seawater, Dissolved zinc-copper", "setting": "[2]; 20° C.", "value": "0.82 (Zn) mg/L"}, {"measurement": "Solubility in seawater, Molecular weight conversion", "setting": "[2]; 20° C.", "value": 3.2, "unit": "mg/L"}, {"measurement": "Solubility in seawater, Molecular weight conversion", "setting": "[2]; 30° C.", "value": 4.3, "unit": "mg/L"}, {"measurement": "ΔE*", "setting": "[6]", "value": 11.52}, {"measurement": "ΔYI", "setting": "[6]", "value": 19.93}, {"measurement": "L*", "setting": "[6]; [12]", "value": 81.92}, {"measurement": "YI", "setting": "[6]; [12]", "value": 21.52}, {"measurement": "a*", "setting": "[6]; [12]", "value": "−3.05"}, {"measurement": "b*", "setting": "[6]; [12]", "value": 11.52}, {"measurement": "L*", "setting": "[6]; [13]", "value": 84.78}, {"measurement": "YI", "setting": "[6]; [13]", "value": 1.58}, {"measurement": "a*", "setting": "[6]; [13]", "value": "−0.28"}, {"measurement": "b*", "setting": "[6]; [13]", "value": 0.71}, {"measurement": "degree of coloring", "setting": "[6]", "value": "smaller"}, {"measurement": "Minimum growth inhibitive concentration of bacteria, Escherichia coli", "setting": "[7]", "value": 10, "unit": "mg/L"}, {"measurement": "antibacterial ability to Escherichia coli", "setting": "[7]; compared with zinc pyrithione", "value": "higher"}]}, {"compound": "[Cu+2].[Cu+2].[Cu+2].[O-][n+]1ccccc1[S-].[O-][n+]1ccccc1[S-].[O-][n+]1ccccc1[S-].[O-][n+]1ccccc1[S-].[O-][n+]1ccccc1[S-].[O-][n+]1ccccc1[S-].[O]=[Cu]", "note": "[Example 9 Chloroform extract, copper pyrithione/copper (II) oxide complex compound]", "values": [{"measurement": "Minimum growth inhibitive concentration of bacteria, Aspergillus niger", "setting": "[1]", "value": 5, "unit": "mg/L"}, {"measurement": "Solubility in seawater, Dissolved zinc-copper", "setting": "[2]; 20° C.", "value": "0.14 (Cu) mg/L"}, {"measurement": "Solubility in seawater, Molecular weight conversion", "setting": "[2]; 20° C.", "value": 0.6, "unit": "mg/L"}, {"measurement": "Solubility in seawater, Dissolved zinc-copper", "setting": "[2]; 30° C.", "value": "0.15 (Cu) mg/L"}, {"measurement": "Solubility in seawater, Molecular weight conversion", "setting": "[2]; 30° C.", "value": 0.6, "unit": "mg/L"}, {"measurement": "solubility in seawater", "setting": "[2]; as stated in the description", "value": "about 0.6 ppm"}]}, {"compound": "Zinc pyrithione", "values": [{"measurement": "Minimum growth inhibitive concentration of bacteria, Malassezia furfur", "setting": "[3]", "value": 5, "unit": "mg/L"}, {"measurement": "degree of coloration of the suspension", "setting": "[4]", "value": "colored in yellow"}, {"measurement": "primary irritation (criterion by the Draize method)", "setting": "oculus membrane mucosa", "value": "slightly irritant"}, {"measurement": "Minimum growth inhibitive concentration of bacteria, Bacillus subtilis", "setting": "[8]; Table 1, Example 14, 28° C.", "value": 2.5, "unit": "mg/L"}, {"measurement": "Minimum growth inhibitive concentration of bacteria, Bacillus subtilis", "setting": "[8]; Table 2, Example 15, 28° C.", "value": 1, "unit": "mg/L"}, {"measurement": "Minimum growth inhibitive concentration of bacteria, Escherichia coli", "setting": "[9]; Table 1, Example 14, 28° C.", "value": 5, "unit": "mg/L"}, {"measurement": "Minimum growth inhibitive concentration of bacteria, Escherichia coli", "setting": "[9]; Table 2, Example 15, 28° C.", "value": 2.5, "unit": "mg/L"}, {"measurement": "Minimum growth inhibitive concentration of bacteria, Staphylococcus aureus", "setting": "[5]", "value": 2.5, "unit": "mg/L"}, {"measurement": "coloring of the first filtrate", "setting": "[10]; 2 g in 10 g of DMSO, ambient temperature", "value": "brown appearance"}, {"measurement": "coloring of the second filtrate", "setting": "[10]; filter residue again added to 10 g of DMSO", "value": "brown appearance"}, {"measurement": "Solubility in seawater, Molecular weight conversion", "setting": "[2]; 20° C.", "value": 6.1, "unit": "mg/L"}, {"measurement": "Solubility in seawater, Molecular weight conversion", "setting": "[2]; 30° C.", "value": 7.4, "unit": "mg/L"}, {"measurement": "Minimum growth inhibitive concentration of bacteria, Pseudomonas aeruginosa", "setting": "[11]", "value": ">1000", "unit": "mg/L"}, {"measurement": "ΔE*", "setting": "[6]", "value": 20.18}, {"measurement": "ΔYI", "setting": "[6]", "value": 34.00}, {"measurement": "L*", "setting": "[6]; [12]", "value": 82.16}, {"measurement": "YI", "setting": "[6]; [12]", "value": 34.70}, {"measurement": "a*", "setting": "[6]; [12]", "value": "−5.00"}, {"measurement": "b*", "setting": "[6]; [12]", "value": 19.68}, {"measurement": "L*", "setting": "[6]; [13]", "value": 86.87}, {"measurement": "YI", "setting": "[6]; [13]", "value": 0.71}, {"measurement": "a*", "setting": "[6]; [13]", "value": "−0.79"}, {"measurement": "b*", "setting": "[6]; [13]", "value": 0.51}, {"measurement": "degree of coloring", "setting": "[6]", "value": "the largest"}, {"measurement": "Minimum growth inhibitive concentration of bacteria, Escherichia coli", "setting": "[7]", "value": 20, "unit": "mg/L"}]}]}
